Legend:
Type in all cases: in vivo
[1] = tested on: isolated heart; experiment: Postganglionic sympathetic stimulation on the isolated heart after oral pretreatment; settings: oral pretreatment with 1 mg/kg perorally, rabbits
Text: Postganglionic sympathetic stimulation on the isolated heart leads, via increased catecholamine release, to an increase in heart rate and contractility and to a decrease in coronary blood flow. […] These effects act together to protect the incompetent heart.

[2] = tested on: ACE in the heart; experiment: Inhibition of ACE in the heart after oral treatment of spontaneously hypertensive rats
Experimental: It is known that converting enzyme inhibitors are capable of inhibiting the enzyme not only in the serum but also in various tissues, and especially also in the heart.
In contrast, with 30 mg/kg of N-(1-carbethoxy-3-phenyl-propyl)-S-alanyl-S-proline (enalapril) perorally, already no further significant inhibition is observed after more than 6 hours.

[3] = tested on: isolated heart; experiment: Effect of angiotensin I and bradykinin on coronary blood flow in the isolated heart after oral pretreatment; settings: isolated heart of rabbits, guineapigs and rats
Experimental: Angiotensin I decreases whilst bradykinin increases the coronary blood flow in the isolated heart of rabbits, guineapigs and rats. […] The same effect can only be achieved with 30 mg/kg of enalapril.

[4] = oral pretreatment with 1 mg/kg perorally

| Compound | influence of postganglionic sympathetic stimulation on contractility [1] | influence of postganglionic sympathetic stimulation on coronary blood flow [1] | influence of postganglionic sympathetic stimulation on heart rate [1] | inhibition of the ACE in the heart at the end of treatment ([2]; chronic oral treatment for two weeks with 1 mg/kg) | duration of significant inhibition of the ACE in the heart ([2]; single oral dose of 1 mg/kg) | action of bradykinin on coronary blood flow [3, 4] | effect of angiotensin I on coronary blood flow [3, 4] | duration of significant inhibition of the ACE in the heart ([2]; 30 mg/kg perorally) | inhibition of the ACE in the heart at the end of treatment ([2]; chronic oral treatment for two weeks with 30 mg/kg perorally) | action of bradykinin on coronary blood flow ([3]; 30 mg/kg) | effect of angiotensin I on coronary blood flow ([3]; 30 mg/kg) |
| --- | --- | --- | --- | --- | --- | --- | --- | --- | --- | --- | --- |
| CCOC(=O)[C@H](CCc1ccccc1)N[C@@H](C)C(=O)N1[C@H](C(=O)O)C[C@@H]2CCC[C@@H]21 [compound of the formula II, N-(1-S-carbethoxy-3-phenyl-propyl)-S-alanyl-cis-endo-2-azabicyclo[3,3,0]octane-3-S-carboxylic acid] | unaffected | significantly reduces | significantly reduces | 55% | > 24 h | increases | significantly reduces | – | – | – | – |
| CCOC(=O)[C@H](CCc1ccccc1)N[C@@H](C)C(=O)N1CCC[C@H]1C(=O)O [enalapril, N-(1-carbethoxy-3-phenyl-propyl)-S-alanyl-S-proline, reference compound] | – | – | – | – | – | – | – | ≤ 6 h | no inhibition is observed | same effect | same effect |
